Source: PMC3282187 (Neuron, 2012)

Tested on: neurons of the locus coeruleus (LC); mu opioid receptor-coupled K^+ channels
Type: cell-based, rat

Molecule: Nc1ccncc1 [4-AP]
- effect on residual Ba^2+-insensitive outward current: unable to block or occlude

Molecule: CC1(C)[C@@H](OC(=O)CCC(=O)O)CC[C@]2(C)[C@H]3C(=O)C=C4[C@@H]5C[C@@](C)(C(=O)O)CC[C@]5(C)CC[C@@]4(C)[C@]3(C)CC[C@@H]12 [carbenoxolone]
- effect on responses to uncaging stimuli: not significantly attenuated

Molecule: ZD7288
- effect on residual Ba^2+-insensitive outward current: unable to block or occlude
